Test results: patent publication EP1813636A1, “Polyamine analogs that activate antizyme frameshifting” (MediQuest Therapeutics, Inc., priority 2004, dated 2007)
One block for each compound: values may come before it.

Columns and labels:
antizyme frameshifting = experiment: dual luciferase reporter assay for antizyme frameshifting in HEK-293 cells; format: cell-based; settings: for frameshift-rescue factor (FRF): %RF multiplied by the inverse of the rescue coefficient
Procedure: Frameshifting can be detected using a dual luciferase reporter system that measures the efficiency of antizyme translational frameshifting (Grentzmann, G. et. al., RNA 4:479-486 (1998); Howard, M. et. al., Genes to Cells 6:931-941 (2001)). Frameshifting efficiency is determined by comparing the ratio of firefly luciferase to renilla luciferase activity in cells transfected in parallel using a control vector containing a constitutive […] (AZ-IF) that measures the in-frame translation efficiency and a vector containing the inducible 0 to +1 frameshift (AZ1) construct. In these constructs, the renilla luciferase gene is upstream of the firefly luciferase gene which are separated by a short cloning sequence containing the portions of antizyme 1 and 2 known to contain the mRNA signals for polyamine stimulated frameshifting. Using a 96-well format, this assay system gives a quantitative measure of the efficiency of the polyamines, polyamine analogs and other compounds to induce frameshifting in a cell-based bioassay. Cells must be pretreated with α-difluoromethylomithine (DFMO), an irreversible inhibitor of ODC, prior to screening to decrease the basal antizyme frameshifting levels and increase the sensitivity to polyamine or compound-mediated stimulation of antizyme frameshifting.
Figure 1 is a tabular representation of a large number of polyamines A-S (25 µM) that were tested for their ability to induce antizyme frameshifting using the dual luciferase reporter assay. The percent relative frameshifting value (% RF) gives a comparison of the ability of a compound to induce frameshifting compared to 25 µM spermidine. The % RF was calculated as follows. The background percent frameshifting activity determined from the 2.5 mM DFMO negative control was subtracted from the percent frameshifting activity for all compounds including the spermidine control. The background corrected frameshifting activity of each compound was then divided by the background corrected frameshifting activity induced by 25 µM spermidine and multiplied by 100. The compounds were also evaluated for their ability to rescue cells from DFMO-induced growth inhibition by determining their rescue coefficient. The rescue coefficient represents the ratio of the cell growth, as measured by O.D., in the presence of the test compound with 2.5 mM DFMO to the growth in the presence of 2.5 mM DFMO alone. The frameshift-rescue factor (FRF) is a useful factor to compare the effectiveness of the various antizyme frameshifters by taking into account their potency for inducing frameshifting and ability to rescue cells from DFMO-induced growth inhibition. The FRF was calculated by multipling the %RF value by the inverse of the rescue coefficient.
Values represent percent frameshifting following transient transfection of an AZ1-IF control and the inducible 0 to +1 AZ1 plasmid construct into HEK-293 cells grown in the presence of 2.5 mM DFMO. The compounds were added to the cells after transfection and incubated overnight before assaying the next day. Each value represents triplicate measurements.
A series of compounds are screened for their ability to induce frameshifting using the dual luciferase reporter assay. HEK-293 cells are plated in white sided, clear-bottomed 96-well assay plates at 15,000 cells per well in 100 µL of medium (DMEM supplemented with 10% fetal bovine serum (Gibco), 1% penicillin, streptomycin and L-glutamine) containing 2.5 mM DFMO. […]

HEK-293 cells [1] = experiment: cells
Procedure: Cell number was determined by MTS/PMS assay from triplicate wells. Cells are plated in 96-well plates such that they would be in log growth for the duration of the assay. The day after plating, the polyamine analogs are added to the cells, and growth, if any, permitted to continue for six days in the presence of 1 mM AG and 1 µM SPD when appropriate. At the end of six days, cell growth is measured by MTS/PMS dye assay (Cell Titer 96 Aqueous Non-Radioactive Cell Proliferation Assay; Promega, Madison, WI).

HEK-293 cells [2] = experiment: intracellular polyamine levels (HPLC) and cell growth after 6-day incubation; format: cell-based
Procedure: Figure 6 is a graph showing the effect of a 6-day incubation of compound A on HEK-293 cellular polyamine levels and cell growth. All flasks received 1 mM aminoguanidine. Cells were washed, counted, lysed in perchloric acid, dansylated and polyamine levels determined by HPLC. Each value represents the average of triplicate values with the error bars representing standard deviation. Figure 7 illustrates the effect of extracellular compound A on the intracellular concentration of compound A in HEK-293 cells as determined by HPLC. Cells were prepared as in Figure 6. Peak area was normalized by dividing the peak area of the compound divided by the peak area of the internal standard, diaminoheptane. Values represent at least triplicate measurements with the error bars representing standard deviation.
Compound A is further evaluated to determine if it depletes intracellular polyamine levels in HEK-293 cells in a dose-dependent fashion (Fig. 6). […] After overnight incubation at 37°C in an atmosphere of 5% CO2, compound A is added along with 1 mM aminoguanidine. The flasks are then incubated for 6 days at 37°C in an atmosphere of 5% CO2. The cells are harvested by washing twice with ice-cold 1X PBS, trypsinized, counted, and lysed in 0.4 N perchloric acid. Diaminoheptane is used in all dansylation reactions as an internal standard. Peak area is normalized by dividing the peak area of the compound divided by the peak area of the internal standard. The HPLC method for the fluorometric detection of polyamines from the cell extracts is based on the procedure by Kabra (Kabra, P. M. et. al. J. Chromatogr. 380:19-32 (1986)).

ODC = target: T1, ODC (Homo sapiens, UniProt P11926); settings: inhibition of ODC; cited from earlier work
T1 sequence (P11926 1-461): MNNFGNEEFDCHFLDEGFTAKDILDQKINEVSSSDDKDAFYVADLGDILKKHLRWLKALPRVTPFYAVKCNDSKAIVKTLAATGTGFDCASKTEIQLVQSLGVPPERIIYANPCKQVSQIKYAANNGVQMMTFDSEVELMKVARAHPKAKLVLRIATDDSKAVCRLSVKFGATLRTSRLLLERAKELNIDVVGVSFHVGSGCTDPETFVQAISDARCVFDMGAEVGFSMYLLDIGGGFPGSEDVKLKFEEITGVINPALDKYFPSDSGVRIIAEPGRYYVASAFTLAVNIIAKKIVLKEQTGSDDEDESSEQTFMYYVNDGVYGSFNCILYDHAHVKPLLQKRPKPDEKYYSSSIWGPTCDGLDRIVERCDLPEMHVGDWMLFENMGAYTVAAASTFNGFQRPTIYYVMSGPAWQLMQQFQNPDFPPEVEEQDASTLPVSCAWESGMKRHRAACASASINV

antizyme = settings: 10 µM; cited from earlier work
HEK-293 cells [3] = experiment: rescue from DFMO-induced growth inhibition (6 days, MTS/PMS dye assay); format: cell-based; settings: 25 µM compound, 2.5 mM DFMO
Procedure: The rescue coefficient represents the ratio of cell growth, as measured by O.D., of the test compound with 2.5 mM DFMO versus 2.5 mM DFMO alone.
HEK-293 cells are plated in 96-well assay plates at 1,000 cells per well in 100 µL of medium (DMEM supplemented with 10% fetal bovine serum (Gibco), 1% penicillin, streptomycin and L-glutamine). The cells are incubated overnight at 37°C in an atmosphere of 5% CO2. Compounds are added the next day to a final concentration of 25 µM along with 1 mM aminoguanidine (inhibits serum amine oxidase) and 2.5 mM DFMO in a final volume of 200 µL medium. The positive control contained 25 µM spermidine. The cells are allowed to incubate for 6 days before cell growth is measured by MTS/PMS dye assay (Cell Titer 96 Aqueous Non-Radioactive Cell Proliferation Assay, Promega). […] Therefore, DFMO alone has a value of one. […] If the value is less than one, then the compound is growth inhibitory. If the value is 0, the compound is cytotoxic.

EC50 (antizyme frameshifting; Homo sapiens, HEK293, HEK-293 cells, 2.5 mM DFMO, concentration giving 50% of the maximum percent frameshifting (plateau), read-out: EC50 for induction of frameshifting): ~120 µM
SMILES: NCCCNCc1ccc(CN)cc1 [Compound A]
frameshift-rescue factor (FRF) (antizyme frameshifting; 25 µM): 120
concentration range of compound A in which 1 µM spermidine rescues cells from growth inhibition (HEK-293 cells [1]; HEK-293 cells, addition of 1 µM spermidine): 3 to 100 µM
IC50 (HEK-293 cells [1]; Homo sapiens, HEK293, 144 h, read-out: IC50 for growth inhibition, HEK-293 cells, 6 days, 1 mM aminoguanidine): ~60 µM
cell growth decreasing by (HEK-293 cells [2]; 10 µM compound A, 6 days): 32%
spermidine levels down by (HEK-293 cells [2]; 10 µM compound A, 6 days): about 90%
cell growth decreasing by (HEK-293 cells [2]; 30 µM compound A, 6 days): 38.5%
spermine levels reduced by (HEK-293 cells [2]; 100 µM compound A, 6 days): 50%
spermine levels, percent of normal (HEK-293 cells [2]; compound A levels above 30 µM): approximately 50%

SMILES: Nc1ccc(N)cc1 [1,4-phenylenediamine]
Ki (ODC): 46 µM

SMILES: NCCCN(CCCN)Cc1ccc(CN(CCCN)CCCN)cc1 [Compound S, reference compound]
%RF (percent relative frameshifting) (antizyme frameshifting; 25 µM compound, relative to 25 µM spermidine): 100%

SMILES: NC/C=C/CN [1,4-diamino-trans-2-butene]
Ki (ODC): 2 µM

SMILES: CCNCCCCNCCCCNCCCCNCCCCNCC [BE-4-4-4-4, 1,19-bis(ethylamino)-5,10,15-triazanonadecane]
antizyme induction compared with spermine (antizyme): induce antizyme as well as spermine

SMILES: N=C(N)NCCCCN [Agmatine, reference compound]
ability to rescue cells from DFMO-induced growth inhibition (HEK-293 cells [3]): somewhat better than either A or B

SMILES: CCNCCCCNCCCCNCCCCNCC [bisethylhomospermine]
antizyme induction compared with spermine (antizyme): induce antizyme as well as spermine

SMILES: NCCCCNCc1ccc(CNCCCN)cc1 [Compound B]
potency in inducing antizyme frameshifting compared with agmatine (antizyme frameshifting; 25 µM, Fig 2): more potent than agmatine
frameshift-rescue factor (FRF) (antizyme frameshifting; 25 µM): 83
ability to rescue cells from DFMO-induced growth inhibition (HEK-293 cells [3]): neither compound A nor B significantly rescue cells

SMILES: CCNCCCNCCCNCCCNCC [bisethylnorspermine]
antizyme induction compared with spermine (antizyme): induce antizyme as well as spermine
